# Source: US20120258980A1, “Antibacterial Agent for Drug-Resistant Bacteria, Method for Screening for Same, and Use of Same” (priority 2009, published 2012)
# Where a name gives a salt, the structure may show the parent alone. Read-outs that look alike come from different tables or passages of the source.
# Legend:
# [1] = tested on: VISA clinical isolates of MRSA (VI-MRSA) and of MSSA (VI-MSSA); experiment: microbe, parasite or virus in culture; format: cell-based, Staphylococcus aureus
# Experimental: Each of the bacterial strains listed in Table 1-1 was shake-cultured at 37° C. overnight in 4 mL of a medium (Tryptical Soy Broth: TSB, product of Becton Dickinson and Company). FDA209P was used as a control.
# After completion of culturing, the resultant culture was suspended in a cation-adjusted Mueller Hinton Broth (CAMHB, product of Becton Dickinson and Company). Then, the obtained bacterial culture was adjusted in absorbance with the CAMHB so that the absorbance at 578 nm of the bacterial culture was adjusted to 0.3 measured by an absorption spectrometer. In addition, the resultant bacterial culture was 500-fold diluted with the CAMHB.
# Each of the 500-fold diluted, pre-cultured bacterial cultures was added at 50 μL/well to the CAMHB containing the quinolones and the nybomycins at various concentrations (50 μL/well), followed by statically culturing at 37° C. overnight.
# After completion of culturing, the growth of the bacteria was visually determined based on turbidity to measure MIC in each bacterial strain.
# Here, the glycopeptides used were VCM and TEIC. The β-lactam used was OXA.
# VRSA clinical isolates = details: based on NARSA, cited from earlier work
# [2] = Staphylococcus aureus, 99/3700-W, VI-MRSA, The United Kingdom
# [3] = Staphylococcus aureus, 99/3759-V, VI-MRSA, The United Kingdom
# [4] = Staphylococcus aureus, 28160, VI-MRSA, South African Republic
# [5] = Staphylococcus aureus, 98141, VI-MRSA, France
# [6] = Staphylococcus aureus, A7 (JCSC4842), VI-MRSA, Taiwan
# [7] = Staphylococcus aureus, AMC11094, VI-MRSA, Korea
# [8] = Staphylococcus aureus, B7 (JCSC4852), VI-MRSA, Taiwan
# [9] = Staphylococcus aureus, BR1, VI-MRSA, Brazil
# [10] = Staphylococcus aureus, BR2, VI-MRSA, Brazil
# [11] = Staphylococcus aureus, BR3, VI-MRSA, Brazil
# [12] = Staphylococcus aureus, BR4, VI-MRSA, Brazil
# [13] = Staphylococcus aureus, BR5, VI-MRSA, Brazil
# [14] = Staphylococcus aureus, HIP06297, VI-MRSA, America
# [15] = Staphylococcus aureus, HIP06854, VI-MRSA, America
# [16] = Staphylococcus aureus, HIP07920, VI-MRSA, America
# [17] = Staphylococcus aureus, HIP07930, VI-MRSA, America
# [18] = Staphylococcus aureus, HIP08926, VI-MRSA, America
# [19] = Staphylococcus aureus, HIP09143, VI-MRSA, America
# [20] = Staphylococcus aureus, HIP09313, VI-MRSA, America
# [21] = Staphylococcus aureus, HIP09433, VI-MRSA, America
# [22] = Staphylococcus aureus, HIP09662, VI-MRSA, America
# [23] = Staphylococcus aureus, HIP09735, VI-MRSA, America
# [24] = Staphylococcus aureus, HIP09737, VI-MSSA, America
# [25] = Staphylococcus aureus, HIP09740, VI-MRSA, America
# [26] = Staphylococcus aureus, HIP10267, VI-MRSA, America
# [27] = Staphylococcus aureus, HIP10540, VI-MRSA, America
# [28] = Staphylococcus aureus, HIP12864, VI-MRSA, America
# [29] = Staphylococcus aureus, HIP13036, VI-MRSA, America
# [30] = Staphylococcus aureus, HIP13057, VI-MRSA, America
# [31] = Staphylococcus aureus, IL (HIP7737), VI-MRSA, America
# [32] = Staphylococcus aureus, JCSC7193, VI-MRSA, Thailand
# [33] = Staphylococcus aureus, JCSC7195, VI-MRSA, Thailand
# [34] = Staphylococcus aureus, JCSC7203, VI-MRSA, Thailand
# [35] = Staphylococcus aureus, LIM2, VI-MRSA, France
# [36] = Staphylococcus aureus, LY-1999-01, VI-MSSA, Oman
# [37] = Staphylococcus aureus, LY-1999-03, VI-MRSA, Oman
# [38] = Staphylococcus aureus, MI (HIP5827), VI-MRSA, America
# [39] = Staphylococcus aureus, MRSA / MSSA / NRS 76 / VISA, NRS76, VI-MSSA, America
# [40] = Staphylococcus aureus, MRSA / MSSA / NRS 79 / VISA, NRS79, VI-MRSA, America
# [41] = Staphylococcus aureus, MRSA / MSSA / NRS 118 / VISA, NRS118, VI-MRSA, America
# [42] = Staphylococcus aureus, MRSA / MSSA / NRS 126 / VISA, NRS126, VI-MRSA, America
# [43] = Staphylococcus aureus, Mu3, VI-MRSA, Japan
# [44] = Staphylococcus aureus, Mu50, VI-MRSA, Japan
# [45] = Staphylococcus aureus, NJ (HIP5836), VI-MRSA, America
# [46] = Staphylococcus aureus, P1V44, VI-MSSA, Belgium
# [47] = Staphylococcus aureus, PC, VI-MRSA, America
# [48] = Staphylococcus aureus, SA MER-S6, VI-MSSA, France
# [49] = Staphylococcus aureus, SA MER-S12, VI-MSSA, France
# [50] = Staphylococcus aureus, SA MER-S20, VI-MSSA, France
smiles,measurement,setting,value
"NC1CCN(c2nc3c(cc2F)c(=O)c(C(=O)O)cn3-c2ccc(F)cc2F)C1 (stereo not drawn) [TFLX, tosufloxacin tosylate]",MIC,[1]; [2],8 µg/mL
same,MIC,[1]; [3],16 µg/mL
same,MIC,[1]; [4],32 µg/mL
same,MIC,[1]; [5],32 µg/mL
same,MIC,[1]; [6],32 µg/mL
same,MIC,[1]; [7],> 128 µg/mL
same,MIC,[1]; [8],16 µg/mL
same,MIC,[1]; [9],128 µg/mL
same,MIC,[1]; [10],32 µg/mL
same,MIC,[1]; [11],32 µg/mL
same,MIC,[1]; [12],> 128 µg/mL
same,MIC,[1]; [13],> 128 µg/mL
same,MIC,[1]; [14],128 µg/mL
same,MIC,[1]; [15],128 µg/mL
same,MIC,[1]; [16],4 µg/mL
same,MIC,[1]; [17],> 128 µg/mL
same,MIC,[1]; [18],128 µg/mL
same,MIC,[1]; [19],> 128 µg/mL
same,MIC,[1]; [20],128 µg/mL
same,MIC,[1]; [21],> 128 µg/mL
same,MIC,[1]; [22],> 128 µg/mL
same,MIC,[1]; [23],> 128 µg/mL
same,MIC,[1]; [24],> 128 µg/mL
same,MIC,[1]; [25],> 128 µg/mL
same,MIC,[1]; [26],> 128 µg/mL
same,MIC,[1]; [27],128 µg/mL
same,MIC,[1]; [28],> 128 µg/mL
same,MIC,[1]; [29],64 µg/mL
same,MIC,[1]; [30],> 128 µg/mL
same,MIC,[1]; [31],> 128 µg/mL
same,MIC,[1]; [32],128 µg/mL
same,MIC,[1]; [33],> 128 µg/mL
same,MIC,[1]; [34],128 µg/mL
same,MIC,[1]; [35],> 128 µg/mL
same,MIC,[1]; [36],8 µg/mL
same,MIC,[1]; [37],32 µg/mL
same,MIC,[1]; [38],16 µg/mL
same,MIC,[1]; [39],> 128 µg/mL
same,MIC,[1]; [40],> 128 µg/mL
same,MIC,[1]; [41],> 128 µg/mL
same,MIC,[1]; [42],128 µg/mL
same,MIC,[1]; [43],16 µg/mL
same,MIC,[1]; [44],> 128 µg/mL
same,MIC,[1]; [45],32 µg/mL
same,MIC,[1]; [46],8 µg/mL
same,MIC,[1]; [47],128 µg/mL
same,MIC,[1]; [48],0.25 µg/mL
same,MIC,[1]; [49],0.25 µg/mL
same,MIC,[1]; [50],1 µg/mL
"CN[C@H](CC(C)C)C(=O)N[C@H]1C(=O)N[C@@H](CC(N)=O)C(=O)N[C@H]2C(=O)N[C@H]3C(=O)N[C@H](C(=O)N[C@H](C(=O)O)c4cc(O)cc(O)c4-c4cc3ccc4O)[C@H](O)c3ccc(c(Cl)c3)Oc3cc2cc(c3O[C@@H]2O[C@H](CO)[C@@H](O)[C@H](O)[C@H]2O[C@H]2C[C@](C)(N)[C@H](O)[C@H](C)O2)Oc2ccc(cc2Cl)[C@H]1O [VCM, vancomycin]",MIC,[1]; [2],2 µg/mL
same,MIC,[1]; [3],2 µg/mL
same,MIC,[1]; [4],4 µg/mL
same,MIC,[1]; [5],2 µg/mL
same,MIC,[1]; [6],3 µg/mL
same,MIC,[1]; [7],4 µg/mL
same,MIC,[1]; [8],4 µg/mL
same,MIC,[1]; [9],2 µg/mL
same,MIC,[1]; [10],4 µg/mL
same,MIC,[1]; [11],8 µg/mL
same,MIC,[1]; [12],8 µg/mL
same,MIC,[1]; [13],8 µg/mL
same,MIC,[1]; [14],4 µg/mL
same,MIC,[1]; [15],4 µg/mL
same,MIC,[1]; [16],2 µg/mL
same,MIC,[1]; [17],4 µg/mL
same,MIC,[1]; [18],4 µg/mL
same,MIC,[1]; [19],4 µg/mL
same,MIC,[1]; [20],4 µg/mL
same,MIC,[1]; [21],2 µg/mL
same,MIC,[1]; [22],4 µg/mL
same,MIC,[1]; [23],4 µg/mL
same,MIC,[1]; [24],4 µg/mL
same,MIC,[1]; [25],1 µg/mL
same,MIC,[1]; [26],4 µg/mL
same,MIC,[1]; [27],4 µg/mL
same,MIC,[1]; [28],4 µg/mL
same,MIC,[1]; [29],8 µg/mL
same,MIC,[1]; [30],4 µg/mL
same,MIC,[1]; [31],4 µg/mL
same,MIC,[1]; [32],4 µg/mL
same,MIC,[1]; [33],1 µg/mL
same,MIC,[1]; [34],2 µg/mL
same,MIC,[1]; [35],2 µg/mL
same,MIC,[1]; [36],4 µg/mL
same,MIC,[1]; [37],4 µg/mL
same,MIC,[1]; [38],8 µg/mL
same,MIC,[1]; [39],2 µg/mL
same,MIC,[1]; [40],2 µg/mL
same,MIC,[1]; [41],8 µg/mL
same,MIC,[1]; [42],4 µg/mL
same,MIC,[1]; [43],0.5 µg/mL
same,MIC,[1]; [44],8 µg/mL
same,MIC,[1]; [45],8 µg/mL
same,MIC,[1]; [46],2 µg/mL
same,MIC,[1]; [47],8 µg/mL
same,MIC,[1]; [48],4 µg/mL
same,MIC,[1]; [49],4 µg/mL
same,MIC,[1]; [50],4 µg/mL
same,MIC,"VRSA clinical isolates; VRS1, VRSA, Michigan",>256 µg/mL
same,MIC,"VRSA clinical isolates; VRS2, VRSA, Pennsylvania",64 µg/mL
same,MIC,"VRSA clinical isolates; VRS3, VRSA, New York",>32 µg/mL
same,MIC,"VRSA clinical isolates; VRS4, VRSA, New York",>32 µg/mL
same,MIC,"VRSA clinical isolates; VRS5, VRSA, Michigan",>256 µg/mL
same,MIC,"VRSA clinical isolates; VRS6, VRSA, Michigan",>256 µg/mL
same,MIC,"VRSA clinical isolates; VRS7, VRSA, Michigan",>256 µg/mL
